Laboratory results as given in ChEMBL document CHEMBL4390636, “Synthesis, spectroscopic characterization, molecular docking and theoretical studies (DFT) of N-(4-aminophenylsulfonyl)-2-(4-isobutylphenyl) propanamide having potential enzyme inhibition applications” (Bioorg Med Chem, 2019).

Tests used:
Cholinesterase [1] = molecular target: T1, Cholinesterase (Homo sapiens, UniProt P06276); test: Inhibition of BuChE (unknown origin) at 0.5 mM using butyrylthiocholine bromide as substrate by Ellman method relative to untreated control
Rattus norvegicus [2] = test: Anti-inflammatory activity in Wistar rat assessed as inhibition of kaolin paw edema at 50 mg/kg, po dosed 1 hr before kaolin injection and measured 4 hrs after kaolin injection relative to untreated control; type: functional
Rattus norvegicus [3] = test: Anti-ulcer activity in Wistar rat model of ethanol-induced gastric ulcer model assessed as ulcer area at 50 mg/kg, po dosed 1 hr before ethanol injection relative to untreated control; type: functional
Acetylcholinesterase [4] = molecular target: T2, Acetylcholinesterase (Homo sapiens, UniProt P22303); test: Inhibition of AChE (unknown origin) using […] as substrate by Ellman method
Acetylcholinesterase [5] = molecular target: T2, Acetylcholinesterase; test: Inhibition of AChE (unknown origin) at 0.5 mM using […] as substrate by Ellman method relative to untreated control
[6] = molecular target: T3, Polyunsaturated fatty acid 5-lipoxygenase (Homo sapiens) (UniProt P09917); test: Inhibition of 5-LOX (unknown origin) relative to untreated control; conditions: concentration not given here
T3 sequence (whole entry): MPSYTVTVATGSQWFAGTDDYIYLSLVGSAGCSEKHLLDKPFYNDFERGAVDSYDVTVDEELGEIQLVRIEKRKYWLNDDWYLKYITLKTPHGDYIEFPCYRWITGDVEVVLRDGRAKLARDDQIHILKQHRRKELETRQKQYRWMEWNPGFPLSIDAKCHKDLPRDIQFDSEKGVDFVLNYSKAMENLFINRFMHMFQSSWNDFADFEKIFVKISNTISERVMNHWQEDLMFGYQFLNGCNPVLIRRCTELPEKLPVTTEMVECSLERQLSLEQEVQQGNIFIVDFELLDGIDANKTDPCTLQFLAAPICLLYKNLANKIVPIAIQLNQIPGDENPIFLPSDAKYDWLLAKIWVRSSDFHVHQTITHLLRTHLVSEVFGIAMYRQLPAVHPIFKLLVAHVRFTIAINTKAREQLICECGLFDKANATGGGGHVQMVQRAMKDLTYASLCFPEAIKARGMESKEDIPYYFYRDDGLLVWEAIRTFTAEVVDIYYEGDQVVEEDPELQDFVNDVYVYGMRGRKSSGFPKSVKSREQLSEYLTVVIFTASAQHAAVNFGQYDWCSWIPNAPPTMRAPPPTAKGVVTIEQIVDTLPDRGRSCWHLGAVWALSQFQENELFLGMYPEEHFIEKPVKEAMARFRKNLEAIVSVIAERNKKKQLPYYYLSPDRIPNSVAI

Cholinesterase [7] = molecular target: T1, Cholinesterase; test: Inhibition of BuChE (unknown origin) using butyrylthiocholine bromide as substrate by Ellman method
[8] = Toxicity in orally dosed Wistar rat monitored every hour for 12 hrs and then every day for 14 days; type: organism-based; conditions: in vivo, po
[9] = Antioxidant activity assessed as DPPH free radical scavenging activity at 0.5 mM relative to untreated control; type: functional
[10] = Antioxidant activity assessed as DPPH free radical scavenging activity at 0.25 mM relative to untreated control; type: functional

T2 sequence (P22303 whole entry): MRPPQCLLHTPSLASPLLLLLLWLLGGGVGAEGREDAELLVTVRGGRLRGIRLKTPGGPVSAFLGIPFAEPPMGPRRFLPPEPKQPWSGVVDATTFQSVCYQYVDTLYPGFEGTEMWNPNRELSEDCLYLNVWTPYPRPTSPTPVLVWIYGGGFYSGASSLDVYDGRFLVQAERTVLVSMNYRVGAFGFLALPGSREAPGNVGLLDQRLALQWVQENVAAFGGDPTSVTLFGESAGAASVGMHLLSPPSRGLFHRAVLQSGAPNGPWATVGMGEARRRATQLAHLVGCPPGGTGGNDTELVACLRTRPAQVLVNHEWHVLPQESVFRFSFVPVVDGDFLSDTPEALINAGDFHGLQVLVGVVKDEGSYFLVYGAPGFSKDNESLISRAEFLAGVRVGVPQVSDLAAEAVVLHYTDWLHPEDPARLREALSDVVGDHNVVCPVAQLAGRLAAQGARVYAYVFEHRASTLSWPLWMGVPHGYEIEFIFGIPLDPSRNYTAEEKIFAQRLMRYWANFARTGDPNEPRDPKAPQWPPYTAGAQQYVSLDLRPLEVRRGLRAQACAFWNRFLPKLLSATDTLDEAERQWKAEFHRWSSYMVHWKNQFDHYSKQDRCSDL
T1 sequence (P06276 whole entry): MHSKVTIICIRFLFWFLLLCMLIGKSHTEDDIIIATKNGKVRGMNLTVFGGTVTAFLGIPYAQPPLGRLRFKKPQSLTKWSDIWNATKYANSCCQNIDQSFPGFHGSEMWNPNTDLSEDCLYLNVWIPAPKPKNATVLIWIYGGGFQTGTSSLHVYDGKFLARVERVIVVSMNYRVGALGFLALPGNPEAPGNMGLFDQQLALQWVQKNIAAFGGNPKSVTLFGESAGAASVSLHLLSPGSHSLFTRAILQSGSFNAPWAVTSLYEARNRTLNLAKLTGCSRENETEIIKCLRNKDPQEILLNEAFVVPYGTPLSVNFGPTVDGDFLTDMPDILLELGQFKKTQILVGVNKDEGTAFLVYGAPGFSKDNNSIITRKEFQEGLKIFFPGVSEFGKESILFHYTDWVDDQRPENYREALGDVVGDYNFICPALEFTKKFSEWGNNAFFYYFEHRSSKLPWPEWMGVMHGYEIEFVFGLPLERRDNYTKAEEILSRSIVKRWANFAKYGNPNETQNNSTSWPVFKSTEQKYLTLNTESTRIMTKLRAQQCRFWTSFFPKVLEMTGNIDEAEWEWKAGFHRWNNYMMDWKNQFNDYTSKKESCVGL

Compound	inhibition (Cholinesterase [1]) [%]	inhibition in vivo at 50 mg/kg (Rattus norvegicus [2]) [%]	Activity (Rattus norvegicus [3]) [%]	IC50 (Acetylcholinesterase [4]) [µmol]	inhibition (Acetylcholinesterase [5]) [%]	inhibition [6] [%]	IC50 (Cholinesterase [7]) [µmol]	LD50 at 14 days [8] [mg/kg]	inhibition [9] [%]	IC50 [10] [µmol]
CC(C)Cc1ccc(C(C)C(=O)NS(=O)(=O)c2ccc(N)cc2)cc1 (stereo not given)	65.9	75	8	< 600	47.2	48.4	214.41	4050		
O=c1c(O)c(-c2ccc(O)c(O)c2)oc2cc(O)cc(O)c12 [QUERCETIN]									93.2	16.96
Nc1ccc(S(N)(=O)=O)cc1 [SULFANILAMIDE]	5.19	10	10		10.2		138.79			
CC(C)Cc1ccc(C(C)C(=O)O)cc1 (stereo not given) [IBUPROFEN]	35.5	45	35	235.11	61.2	42.5	< 600	630	11.3	< 500
